Literature values, collected in article PMC7395068, “The evolution of strategies to minimise the risk of human drug-induced liver injury (DILI) in drug discovery and development” (Archives of Toxicology, 2020).
Where a name gives a salt, the structure may show the parent alone. Read-outs that look alike come from different tables or passages of the source. *1 amine or outer side, *2 acyl side, *3 side chain or, on linkers, in order; H or OH if unused. Where a SMILES comes first, the peptide text is derived from it. Bridges are numbered along the chain shown (N, C = ends). [ ]: non-standard residue; d: D form. The star is where a group is joined. pTerphenylCO(4''-OnC5H11) = CCCCCOc1ccc(-c2ccc(-c3ccc(C(=O)*)cc3)cc2)cc1; Orn(4R-OH,5R-OH) = O=C([C@H](C[C@@H](O)[C@@H](O)N[*:3])N[*:1])[*:2]; hTyr(3S-OH,4S-OH) = N[C@H](C(=O)O)[C@H](O)[C@@H](O)c1ccc(O)cc1; Pro(3S-OH,4S-Me) = C[C@H]1CN[C@H](C(=O)O)[C@H]1O; Hyp = O=C(O)[C@@H]1C[C@@H](O)CN1

Conditions: cited from earlier work
[1] = LTKB DILIrank category, ref Chen 2016
[2] = binary DILI call, ref Chen 2016

## OC[C@H]1O[C@@H](O[C@@H]2[C@@H](CO)OC(O)(CO)[C@H]2O)[C@H](O)[C@@H](O)[C@H]1O (mixture of isomers) [lactulose]
Binary in vivo human DILI call, ref Chen 2016
  DILI +VE (5-8), DILI -VE (-4): -VE
Human DILI, LTKB DILIrank category, ref Chen 2016
  DILI severity category: vNo-DILI-Concern

## CCCCC(C)(O)C/C=C/[C@H]1[C@H](O)CC(=O)[C@@H]1CCCCCCC(=O)OC (mixture of isomers) [misoprostol]
In vivo
  DILI +VE (5-8), DILI -VE (-4): -VE
  DILI severity category: Ambiguous DILI-concern

## O=C(O)CCCc1ccccc1 [4-phenylbutyric acid]
[1]
  DILI severity category: Ambiguous DILI-concern
[2]
  DILI +VE (5-8), DILI -VE (-4): -VE

## Nc1nc(=O)c2c([nH]1)NC[C@H](CNc1ccc(C(=O)N[C@@H](CCC(=O)O)C(=O)O)cc1)N2C=O [Levoleucovorin]
In vivo
  DILI +VE (5-8), DILI -VE (-4): -VE
  DILI severity category: vNo-DILI-Concern

## CC(=O)NCCCS(=O)(=O)O [acamprosate]
In vivo
  DILI +VE (5-8), DILI -VE (-4): +VE
  DILI severity category: vLess-DILI-Concern

## CCCC(=O)Nc1ccc(OCC(O)CNC(C)C)c(C(C)=O)c1 (stereo not shown) [acebutolol]
[1]
  DILI severity category: vLess-DILI-Concern

## O=C(O)COC(=O)Cc1ccccc1Nc1c(Cl)cccc1Cl [aceclofenac]
In vivo
  DILI +VE (5-8), DILI -VE (-4): +VE
  DILI severity category: vLess-DILI-Concern

## CC(=O)NO [acetohydroxamic acid]
In vivo
  DILI +VE (5-8), DILI -VE (-4): -VE
  DILI severity category: Ambiguous DILI-concern

## Nc1ncnc2c1ncn2CCOCP(=O)(O)O [adefovir]
[1]
  DILI severity category: vLess-DILI-Concern

## CC(N)C(=O)OC(C)(C)Cc1ccc(Cl)cc1 (stereo not shown) [alaproclate]
[1]
  DILI severity category: vMost-DILI-Concern

## C[C@H](N)C(=O)N[C@@H](C)C(=O)N[C@H]1[C@@H]2CN(c3nc4c(cc3F)c(=O)c(C(=O)O)cn4-c3ccc(F)cc3F)C[C@@H]21 [alatrofloxacin mesylate]
[1]
  DILI severity category: vMost-DILI-Concern

## C=CCOc1ccc(CC(=O)O)cc1Cl [alclofenac]
[1]
  DILI severity category: vMost-DILI-Concern

## COc1cc2nc(N(C)CCCNC(=O)C3CCCO3)nc(N)c2cc1OC (stereo not shown) [alfuzosin]
[1]
  DILI severity category: vLess-DILI-Concern

## CN(C)CCc1c[nH]c2ccc(CS(=O)(=O)N3CCCC3)cc12 [almotriptan]
[1]
  DILI severity category: vNo-DILI-Concern
[2]
  DILI +VE (5-8), DILI -VE (-4): -VE

## Cc1nnc2n1-c1ccc(Cl)cc1C(c1ccccc1)=NC2 [alprazolam]
In vivo
  DILI +VE (5-8), DILI -VE (-4): +VE
  DILI severity category: vLess-DILI-Concern

## C[C@H]1CN(C[C@H](Cc2ccccc2)C(=O)NCC(=O)O)CC[C@@]1(C)c1cccc(O)c1 [alvimopan]
[1]
  DILI severity category: vNo-DILI-Concern
[2]
  DILI +VE (5-8), DILI -VE (-4): -VE

## CC[N+](CC)(CCNC(=O)C(=O)NCC[N+](CC)(CC)Cc1ccccc1Cl)Cc1ccccc1Cl [ambenonium]
In vivo
  DILI +VE (5-8), DILI -VE (-4): -VE
  DILI severity category: vNo-DILI-Concern

## NCCCNCCSP(=O)(O)O [amifostine]
[1]
  DILI severity category: vNo-DILI-Concern
[2]
  DILI +VE (5-8), DILI -VE (-4): -VE

## NCCCCCC(=O)O [aminocaproic acid]
[1]
  DILI severity category: vNo-DILI-Concern
[2]
  DILI +VE (5-8), DILI -VE (-4): -VE

## Nc1ccc(C(=O)NCC(=O)O)cc1 [aminohippurate]
In vivo
  DILI +VE (5-8), DILI -VE (-4): -VE
  DILI severity category: vNo-DILI-Concern

## CCOC(=O)C1=C(COCCN)NC(C)=C(C(=O)OC)C1c1ccccc1Cl (stereo not shown) [amlodipine]
In vivo
  DILI +VE (5-8), DILI -VE (-4): +VE
  DILI severity category: vLess-DILI-Concern

## CC(N)Cc1ccccc1 (stereo not shown) [amphetamine]
In vivo
  DILI +VE (5-8), DILI -VE (-4): +VE
  DILI severity category: vLess-DILI-Concern

## CC(C)CN(C[C@@H](O)[C@H](Cc1ccccc1)NC(=O)O[C@H]1CCOC1)S(=O)(=O)c1ccc(N)cc1 [amprenavir]
[1]
  DILI severity category: Ambiguous DILI-concern
[2]
  DILI +VE (5-8), DILI -VE (-4): -VE

## O=C1CN2Cc3c(ccc(Cl)c3Cl)N=C2N1 [anagrelide]
[1]
  DILI severity category: Ambiguous DILI-concern
[2]
  DILI +VE (5-8), DILI -VE (-4): -VE

## CCCCCOc1ccc(-c2ccc(-c3ccc(C(=O)N[C@H]4C[C@@H](O)[C@@H](O)NC(=O)[C@@H]5[C@@H](O)[C@@H](C)CN5C(=O)[C@H]([C@@H](C)O)NC(=O)[C@H]([C@H](O)[C@@H](O)c5ccc(O)cc5)NC(=O)[C@@H]5C[C@@H](O)CN5C(=O)[C@H]([C@@H](C)O)NC4=O)cc3)cc2)cc1 [anidulafungin] ({pTerphenylCO(4''-OnC5H11)}-[Orn(4R-OH,5R-OH)]T[Hyp][hTyr(3S-OH,4S-OH)]T[Pro(3S-OH,4S-Me)]; lactam 1-C)
[1]
  DILI severity category: Ambiguous DILI-concern
[2]
  DILI +VE (5-8), DILI -VE (-4): -VE

## CN1CCc2cccc3c2[C@H]1Cc1ccc(O)c(O)c1-3 [apomorphine]
[1]
  DILI severity category: vNo-DILI-Concern
[2]
  DILI +VE (5-8), DILI -VE (-4): -VE

## NC(=O)C[S@@+]([O-])C(c1ccccc1)c1ccccc1 [armodafinil]
[1]
  DILI severity category: Ambiguous DILI-concern
[2]
  DILI +VE (5-8), DILI -VE (-4): -VE

## CNCC[C@@H](Oc1ccccc1C)c1ccccc1 [atomoxetine]
[1]
  DILI severity category: vMost-DILI-Concern

## O=C1C(O)=C([C@H]2CC[C@H](c3ccc(Cl)cc3)CC2)C(=O)c2ccccc21 [atovaquone]
[1]
  DILI severity category: Ambiguous DILI-concern
[2]
  DILI +VE (5-8), DILI -VE (-4): -VE

## COc1ccc(CC2c3cc(OC)c(OC)cc3CC[N+]2(C)CCC(=O)OCCCCCOC(=O)CC[N+]2(C)CCc3cc(OC)c(OC)cc3C2Cc2ccc(OC)c(OC)c2)cc1OC (stereo not shown) [atracurium]
[1]
  DILI severity category: vNo-DILI-Concern
[2]
  DILI +VE (5-8), DILI -VE (-4): -VE

## CC(=O)OC[C@H]1O[C@@H]([S-])[C@H](OC(C)=O)[C@@H](OC(C)=O)[C@@H]1OC(C)=O.CCP(CC)CC.[Au+] [auranofin]
[1]
  DILI severity category: vLess-DILI-Concern

## Nc1ncn([C@@H]2O[C@H](CO)[C@@H](O)[C@H]2O)c(=O)n1 [azacitidine]
[1]
  DILI severity category: Ambiguous DILI-concern
[2]
  DILI +VE (5-8), DILI -VE (-4): -VE

## O=C(O)CCNC(=O)c1ccc(/N=N/c2ccc(O)c(C(=O)O)c2)cc1 [balsalazide]
[1]
  DILI severity category: Ambiguous DILI-concern
[2]
  DILI +VE (5-8), DILI -VE (-4): -VE

## Cn1c(CCCC(=O)O)nc2cc(N(CCCl)CCCl)ccc21 [bendamustine]
In vivo
  DILI +VE (5-8), DILI -VE (-4): -VE
  DILI severity category: vNo-DILI-Concern

## O=C(O)COc1nn(Cc2ccccc2)c2ccccc12 [bendazac]
[1]
  DILI severity category: vMost-DILI-Concern

## NS(=O)(=O)c1cc2c(cc1C(F)(F)F)NC(Cc1ccccc1)NS2(=O)=O (stereo not shown) [bendroflumethiazide]
[1]
  DILI severity category: vLess-DILI-Concern

## CCCCNc1ccc(C(=O)OCCOCCOCCOCCOCCOCCOCCOCCOCCOC)cc1 [benzonatate]
[1]
  DILI severity category: vLess-DILI-Concern

## C[C@@H](Cc1ccccc1)N(C)Cc1ccccc1 [benzphetamine]
In vivo
  DILI +VE (5-8), DILI -VE (-4): -VE
  DILI severity category: vNo-DILI-Concern

## CC(C)NCC(O)COc1ccc(CCOCC2CC2)cc1 (stereo not shown) [betaxolol]
[1]
  DILI severity category: Ambiguous DILI-concern
[2]
  DILI +VE (5-8), DILI -VE (-4): -VE

## CC(C[N+](C)(C)C)OC(N)=O (stereo not shown) [bethanechol]
[1]
  DILI severity category: vNo-DILI-Concern
[2]
  DILI +VE (5-8), DILI -VE (-4): -VE

## CC(C)C[C@H](NC(=O)[C@H](Cc1ccccc1)NC(=O)c1cnccn1)B(O)O [bortezomib]
[1]
  DILI severity category: vMost-DILI-Concern

## CC(C)C[C@H]1C(=O)N2CCC[C@H]2[C@]2(O)O[C@](NC(=O)[C@@H]3C=C4c5cccc6[nH]c(Br)c(c56)C[C@H]4N(C)C3)(C(C)C)C(=O)N12 [bromocriptine]
[1]
  DILI severity category: vLess-DILI-Concern

## CCC(C)C1(CC)C(=O)NC(=O)NC1=O (stereo not shown) [butabarbital]
[1]
  DILI severity category: Ambiguous DILI-concern
[2]
  DILI +VE (5-8), DILI -VE (-4): -VE

## C=CCN1C[C@H](C(=O)N(CCCN(C)C)C(=O)NCC)C[C@@H]2c3cccc4[nH]cc(c34)C[C@H]21 [cabergoline]
[1]
  DILI severity category: vNo-DILI-Concern
[2]
  DILI +VE (5-8), DILI -VE (-4): -VE

## CC(C)C[C@H](NC(=O)[C@H](CCCCN)NC(=O)CNC(=O)[C@H](CC(C)C)NC(=O)[C@@H](NC(=O)[C@@H]1CSSC[C@H](N)C(=O)N[C@@H](CO)C(=O)N[C@@H](CC(N)=O)C(=O)N[C@@H](CC(C)C)C(=O)N[C@@H](CO)C(=O)N[C@@H]([C@@H](C)O)C(=O)N1)C(C)C)C(=O)N[C@@H](CO)C(=O)N[C@@H](CCC(N)=O)C(=O)N[C@@H](CCC(=O)O)C(=O)N[C@@H](CC(C)C)C(=O)N[C@@H](Cc1c[nH]cn1)C(=O)N[C@@H](CCCCN)C(=O)N[C@@H](CC(C)C)C(=O)N[C@@H](CCC(N)=O)C(=O)N[C@H](C(=O)N[C@@H](Cc1ccc(O)cc1)C(=O)N1CCC[C@H]1C(=O)N[C@@H](CCCNC(=N)N)C(=O)N[C@H](C(=O)N[C@@H](CC(N)=O)C(=O)N[C@H](C(=O)NCC(=O)N[C@@H](CO)C(=O)NCC(=O)N[C@H](C(=O)N1CCC[C@H]1C(N)=O)[C@@H](C)O)[C@@H](C)O)[C@@H](C)O)[C@@H](C)O [calcitonin salmon]
In vivo
  DILI +VE (5-8), DILI -VE (-4): -VE
  DILI severity category: vNo-DILI-Concern

## C=C1/C(=C\C=C2/CCC[C@]3(C)[C@@H]([C@H](C)CCCC(C)(C)O)CC[C@@H]23)C[C@@H](O)C[C@@H]1O [calcitriol]
[1]
  DILI severity category: vNo-DILI-Concern
[2]
  DILI +VE (5-8), DILI -VE (-4): -VE
